The values below come from patent US20230286960A1, “ALLOSTERIC CHROMENONE INHIBITORS OF PHOSPHOINOSITIDE 3-KINASE (PI3K) FOR THE TREATMENT OF DISEASE” (Petra Pharma Corporation, priority 2020, published 2023).

The nature of one data set: Mouse PK Assays. Format: in vivo. More on the design: PK-Mouse: PO AUC-last/dose: unit not given here. The following applies: fed.
Data set [1] concerns the target human full length PIK3CA H1047R mutant (p110α/p85α) (Homo sapiens (Human), UniProt P42336, H1047R). Nature of the data set: PI3K-alpha kinase (PIK3CA) activity, H1047R mutant, Transcreener ADP2 FI assay. Conditions: PI3K-α (PIK3CA) biochemical. As to the method:
(§1) PI3K-Alpha Kinase (PIK3CA) Activity, Wild-Type and H1047R Mutant and Determining IC50 Values for Inhibitors
(§2) Recombinant, catalytically active human full length PIK3KA Wild-type and H1047R mutant were purchased as 1:1 complex of N-terminal 6× his tagged p110 ? (catalytic) and untagged p85 ? (regulatory subunit) from EMD Millipore Sigma (cat. no. 14-602M and 14-792M, respectively). The enzyme stocks were diluted to 5× stocks in buffer (20 mM HEPES pH 7.4, 100 mM NaCl, 0.5 mM EGTA, 0.01% triton-x-100) just before use. PIP2diC8 (Avanti Polar Lipids Inc., cat. no. 850185) or phosphoinositol-4,5-bisphosphate with phosphoserine (PIP2:PS) membrane (Thermo Fisher Scientific, cat. no. PV5100) was used as lipid substrates. PIP2diC8 lyophilized powder and PIP2:PS (1:19) membrane stock (1 mM in PIP2) were separately dissolved in milliQ water to a concentration of 250 uM and stored in −20° C. 10 mM stocks of compounds were serially diluted (3×) in neat DMSO and stored in a dessicator at room temperature. 5× compound stocks in 25% DMSO were prepared fresh from neat DMSO stocks.
(§3) Wild-type (WT) and H1047R mutant protein, along with buffer components (except ATP), were incubated with or without compound at 27° C. for 1 h. After incubation, the reaction was initiated by the addition of 5 uL of 125 uM ATP. A typical assay mixture (25 uL) comprised 40 mM HEPES buffer, pH 7.4, 25 mM MgCl2, 0.01% v/v triton-X-100, 5% v/v DMSO, 20 mM NaCl, 1-5 nM wt or H1047R, 25 uM ATP, and 50 uM PIP2diC8 or PIP2 in membrane. The reaction was allowed to proceed until about […] (2.5 uM ADP) after which time, 10 uL of reaction mixture was quenched with 25 uL of transcreener reagent (Transcreener ADP2 FI assay kit, BellBrook labs, Cat. No. 3013). The contents were incubated at rt for 1 h and fluorescence was measured using a plate reader (Paradigm, Molecular Devices). The same assay was also run at pH 6.0 or 6.4 using MOPS buffer (Fisher BioReagents, CAS 1132-61-2). A calibration curve was generated under identical buffer conditions with varying ADP amounts. Using that, the observed fluorescence was converted to uM ADP. A plot between [ADP] and log[I] yielded the dose-response curves that enabled the calculation of IC50s.

Data set [2] addresses human full length PIK3CA wild-type (p110α/p85α) (Homo sapiens (Human), UniProt P42336). Nature of the data set: PI3K-alpha kinase (PIK3CA) activity, wild-type, Transcreener ADP2 FI assay. Conditions: PI3K-α (PIK3CA) biochemical. How it is done: as §1, §2, §3
[3] abbreviates: PO 10 mg/kg, 20% DMSO/60% PEG400/20% Water.
Setting [4] is: PO 50 mg/kg, 20% DMSO/60% PEG400/20% Water.
The mark [5] stands for this setting: PO 10 mg/kg, 30% SBE-beta-cyclodextrin.
Setting [6] is: PO 100 mg/kg, 20% DMSO/60% PEG400/20% H2O.

The structures appear in SMILES notation. pIC50: −log10 of the molar value.

Chain of human full length PIK3CA wild-type (p110α/p85α) (P42336 whole entry): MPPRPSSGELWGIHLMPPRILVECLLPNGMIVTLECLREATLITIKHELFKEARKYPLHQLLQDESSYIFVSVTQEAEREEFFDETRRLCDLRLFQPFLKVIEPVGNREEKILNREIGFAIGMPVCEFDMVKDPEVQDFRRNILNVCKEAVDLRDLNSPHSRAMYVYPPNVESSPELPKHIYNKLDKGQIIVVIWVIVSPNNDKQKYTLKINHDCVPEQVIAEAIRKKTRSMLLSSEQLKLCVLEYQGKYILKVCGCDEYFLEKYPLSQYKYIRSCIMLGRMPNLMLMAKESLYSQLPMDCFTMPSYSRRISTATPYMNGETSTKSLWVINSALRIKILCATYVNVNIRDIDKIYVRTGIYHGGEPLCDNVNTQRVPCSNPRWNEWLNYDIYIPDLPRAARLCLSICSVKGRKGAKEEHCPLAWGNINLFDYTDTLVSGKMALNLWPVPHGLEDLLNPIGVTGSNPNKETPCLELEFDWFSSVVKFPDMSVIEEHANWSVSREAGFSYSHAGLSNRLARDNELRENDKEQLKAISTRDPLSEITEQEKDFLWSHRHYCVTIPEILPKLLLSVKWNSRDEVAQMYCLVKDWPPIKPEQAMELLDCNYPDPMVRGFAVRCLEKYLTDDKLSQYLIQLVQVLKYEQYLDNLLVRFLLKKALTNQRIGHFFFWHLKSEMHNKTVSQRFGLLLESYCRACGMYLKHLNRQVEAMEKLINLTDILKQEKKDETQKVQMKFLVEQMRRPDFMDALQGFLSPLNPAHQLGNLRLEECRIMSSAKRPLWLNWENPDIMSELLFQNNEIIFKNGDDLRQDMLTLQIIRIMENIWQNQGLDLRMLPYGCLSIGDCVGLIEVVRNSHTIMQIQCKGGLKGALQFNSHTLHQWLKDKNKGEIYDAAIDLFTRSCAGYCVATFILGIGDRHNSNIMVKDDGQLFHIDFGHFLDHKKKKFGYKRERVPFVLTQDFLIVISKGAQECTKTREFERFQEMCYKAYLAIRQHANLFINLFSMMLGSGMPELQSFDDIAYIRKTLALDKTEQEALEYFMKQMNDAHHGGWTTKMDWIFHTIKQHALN
Chain of human full length PIK3CA wild-type (p110α/p85α) (P27986 whole entry partner): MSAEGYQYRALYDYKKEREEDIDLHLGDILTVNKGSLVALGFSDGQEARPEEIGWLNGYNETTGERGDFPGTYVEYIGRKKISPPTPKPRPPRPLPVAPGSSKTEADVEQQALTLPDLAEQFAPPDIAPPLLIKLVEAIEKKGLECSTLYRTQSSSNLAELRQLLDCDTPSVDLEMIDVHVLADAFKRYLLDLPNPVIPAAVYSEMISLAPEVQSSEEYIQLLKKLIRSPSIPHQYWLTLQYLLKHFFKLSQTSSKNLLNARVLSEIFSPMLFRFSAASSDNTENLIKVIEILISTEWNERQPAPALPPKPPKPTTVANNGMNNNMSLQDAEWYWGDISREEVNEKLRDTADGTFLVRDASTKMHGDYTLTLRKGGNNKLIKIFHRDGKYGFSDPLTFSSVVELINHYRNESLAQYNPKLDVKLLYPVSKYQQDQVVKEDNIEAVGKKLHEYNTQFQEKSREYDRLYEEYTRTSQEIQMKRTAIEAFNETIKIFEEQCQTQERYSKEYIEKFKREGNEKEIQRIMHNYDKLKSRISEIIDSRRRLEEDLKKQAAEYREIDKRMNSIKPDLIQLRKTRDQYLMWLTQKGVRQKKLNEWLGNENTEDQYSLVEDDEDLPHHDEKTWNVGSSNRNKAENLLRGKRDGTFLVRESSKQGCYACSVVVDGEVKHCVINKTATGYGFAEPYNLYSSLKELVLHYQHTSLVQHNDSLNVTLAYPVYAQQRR
Chain of human full length PIK3CA H1047R mutant (p110α/p85α) (P42336 whole entry H1047R): as the sequence (P42336 whole entry) above, with H1047R counted along it
Chain of human full length PIK3CA H1047R mutant (p110α/p85α) (P27986 whole entry partner): as the sequence (P27986 whole entry partner) above

Regarding `Cc1cc(C(C)Nc2ccccc2C(=O)O)c2oc(N3Cc4ccccc4C3)cc(=O)c2c1` (single isomer, unassigned) [Example 363, 2-[1-(2-Isoindolin-2-yl-6-methyl-4-oxo-chromen-8-yl)ethylamino]benzoic acid], in “Mouse PK Assays” (setting [3]), the “PK-Mouse: F % Calcd” value is given as 86% and the “PK-Mouse: PO AUC-last/dose” value is 1800. In addition, in “Mouse PK Assays” (setting [4]), the “PK-Mouse: F % Calcd” value was 33% and the “PK-Mouse: PO AUC-last/dose” value was 700.
For `Cc1cc(C(C)Nc2ccccc2C(=O)O)c2oc(N3CCC(C)(C)CC3)cc(=O)c2c1` (single isomer, unassigned) [Example 366, 2-[1-[2-(4,4-Dimethyl-1-piperidyl)-6-methyl-4-oxo-chromen-8-yl]ethylamino]benzoic acid], the “PK-Mouse: F % Calcd” value in “Mouse PK Assays” (setting [5]) is 110%; in “Mouse PK Assays” (setting [4]), 280%; in the data set “Mouse PK Assays” (setting [6]) it was 220%. The results for the “PK-Mouse: PO AUC-last/dose” value in “Mouse PK Assays” (setting [5]), in “Mouse PK Assays” (setting [4]) and in the data set “Mouse PK Assays” (setting [6]) were 390, 960 and 760, respectively.
As for `Cc1cc(C(C)Nc2ccc(Cl)nc2C(=O)O)c2oc(N3CCC4(CC3)CC4)cc(=O)c2c1` (centres unmarked) [Example 298, 3-[1-[2-(6-Azaspiro[2.5]octan-6-yl)-6-methyl-4-oxo-chromen-8-yl]ethylamino]-6-chloro-pyridine-2-carboxylic acid], the pIC50 in data set [1] and in data set [2] was above 6.30 each time.
Regarding `Cc1cc([C@@H](C)Nc2ccc(Cl)nc2C(=O)O)c2oc(N3CCCCC3)c(C)c(=O)c2c1` [Example 309, 6-Chloro-3-[[(1R)-1-[3,6-dimethyl-4-oxo-2-(1-piperidyl)chromen-8-yl]ethyl]amino]pyridine-2-carboxylic acid], the pIC50 in data set [1] and in data set [2] was above 6.30 throughout.
On to `Cc1cc(C(C)Nc2cc(F)ccc2[N+](=O)[O-])c2oc(N3CCC(C)(C)CC3)cc(=O)c2c1` (centres unmarked) [Example 8, 2-(4,4-Dimethyl-1-piperidyl)-8-[1-(5-fluoro-2-nitro-anilino)ethyl]-6-methyl-chromen-4-one], for which the pIC50 in data set [1] and in data set [2] was below 5.00 in each case.
As to `Cc1cc([C@@H](C)Nc2ccc(Cl)nc2C(=O)O)c2oc(N3CCC(F)(F)CC3)c(C)c(=O)c2c1` [Example 310, 6-Chloro-3-[[(1R)-1-[2-(4,4-difluoro-1-piperidyl)-3,6-dimethyl-4-oxo-chromen-8-yl]ethyl]amino]pyridine-2-carboxylic acid], the pIC50 in data set [1] and in data set [2] was above 6.30 in each case.
Take `Cc1cc(C(C)Nc2ccccc2C(=O)O)c2oc(NCC(C)C)cc(=O)c2c1` (centres unmarked) [Example 77, 2-[1-[2-(Isobutylamino)-6-methyl-4-oxo-chromen-8-yl]ethylamino]benzoic acid]: the pIC50 (as a rule, the IC50 on a negative log10 scale, so that one unit is a factor of ten) is above 6.30 in data set [1] and below 5.00 in data set [2].
